From patent US4579947A, “Substituted phenylalkylpiperazinylpropyl (ureas or thioureas) useful for treatment of immunological, inflammatory and allergic disorder” (Boehringer Ingelheim Pharmaceuticals, Inc., priority 1984, dated 1986) come the findings set out here.

What is called IC50 is the midpoint of a concentration-inhibition curve.

Structures can show the parent of a compound that is named as a salt.

The subject of assay [1] is human leukocytes (basophils). In words: Inhibition of human leukocyte (basophil) histamine release in vitro (rabbit anti-human IgE). The class given is cell-based. The following applies: Leukocyte, 1 h, Table A, 60 minutes at 37° C., Int. = interference with test procedure, read-out: Inhibition IC50 (histamine release from human leukocytes (basophils)). As to the method:
Separation of Leukocytes: A modification of the method of L. Lichtenstein and A. Osler, J.Exp.Med. 120, 507 (1964) was used. Heparinized human blood (80-100 ml) is mixed with 20 ml of saline (0.2%) containing 0.6 gm of dextrose and 1.2 gm dextran in propylene centrifuge tubes. The mixture is kept at ambient temperature for 60-90 minutes to allow the separation of erythrocytes from the platelet-leukocyte-rich supernate. The supernate is removed and centrifuged for 8 minutes at 110×g in cold. The leukocyte pellet is washed 2× with Tris buffer and finally suspended in 150-180 ml Tris-ACM buffer at 1-2×10^6 cells/ml. 2. Reaction Mixture: The reaction is carried out in 12×75 mm plastic tubes at a total volume of 1.25 ml. The reaction medium includes 0.05 ml rabbit anti-human IgE (the antigen), 0.2 ml of the test compound in water at concentrations ranging from 10-1000 μM, and 1.0 ml of the leukocyte suspension. The reaction mixture is incubated in a 37° C. shaking water bath for 60 minutes. Upon completion of the reaction, the tubes are centrifuged and the supernatants collected. The protein is removed from the supernatants by precipitation with 0.2 ml of 8% perchloric acid. 3. Histamine Assay: Histamine release is measured by the automated fluorometric method of W. Siraganian and W. Hook in Chapter 102 of the Manual of Clinical Immunology, 2nd Edition, Edited by R. Rose and H. Friedman, Published by the American Society for Microbiology, Washington, D.C. 1980. Percent inhibition is calculated as follows: [formula] The concentration which causes a 50 percent inhibition (IC50) of histamine release is interpolated from a plot of percent inhibition versus logarithm of drug concentration.

In assay [2] the test system is isolated guinea pig ileum. In words: Antagonism of histamine-induced contraction of isolated guinea pig ileum. The format is cell-based. The following applies: Cavia porcellus; Table C; histamine final concentration 0.2 μg/ml; read-out: Inhibition IC50 (histamine-induced contraction of isolated guinea pig ileum). The method, then: The antagonism of the effects of histamine on the contraction of isolated guinea pig ileum by the compounds of formula I can be determined by the procedure of G. Possanza, A. Bauen, and P. Stewart, Int. Arch. Allergy Appl. Immunol., 49, 289 (1975). The degree of inhibition is determined as the difference between the contraction caused by histamine (final concentration 0.2 μg/ml) alone and that seen in the presence of both histamine and the test compound. The inhibitory activity of the test compound is expressed as that concentration of the compound which causes a 50% reduction of the contractile response (IC50).

In the case of `CNC(=O)NCCCN1CCN(Cc2ccc(Cl)cc2)CC1` [Example 2, 1-{3-[4-(4-Chlorobenzyl)piperazin-1-yl]propyl}-3-methylurea dihydrochloride], the IC50 in assay [1] stood at 300 µM; in assay [2], 0.63 µM.
Take `CCCCNC(=O)NCCCN1CCN(Cc2ccc(Cl)cc2)CC1` [Example 3, 1-{3-[4-(4-Chlorobenzyl)piperazin-1-yl]propyl}-3-n-butylurea dihydrochloride hemihydrate]: the IC50 was 50 µM in assay [1] and 0.07 µM in assay [2].
The matching figures for `O=C(NCCCN1CCN(Cc2ccc(F)cc2)CC1)NC1CCCCC1` [Example 6, 1-{3-[4-(4-Fluorobenzyl)piperazin-1-yl]propyl}-3-cyclohexylurea dihydrochloride monohydrate]: 50 µM and 0.11 µM.
With `O=C(NCCCN1CCN(Cc2ccccc2)CC1)NC1CCCCC1` [Example 7, 1-{3-(4-Benzylpiperazin-1-yl)propyl]-3-cyclohexylurea dihydrochloride], the IC50 in assay [1] came out at 240 µM; in assay [2], 0.32 µM.
The matching figures for `O=C(NCCCN1CCN(Cc2ccccc2)CC1)Nc1ccccc1` [Example 8, 1-[3-(4-Benzylpiperazin-1-yl)propyl]-3-phenylurea]: 400 µM and 0.21 µM.
Take `O=C(NCCCN1CCN(Cc2ccc(Cl)cc2)CC1)Nc1ccc(Cl)cc1` [Example 10, 1-{3-[4-(4-Chlorobenzyl)piperazin-1-yl]propyl}-3-(4-chlorophenyl)urea hydrochloride]: the IC50 came out at 30 µM in assay [1] and 0.15 µM in assay [2].
As to `Cc1ccc(NC(=O)NCCCN2CCN(Cc3ccc(Cl)cc3)CC2)cc1` [Example 11, 1-{3-[4-(4-Chlorobenzyl)piperazin-1-yl]propyl}-3-(4-methylphenyl)urea dihydrochloride monohydrate], the IC50 came to 37 µM in assay [1] and 0.065 µM in assay [2].
Turning to `COc1ccc(NC(=O)NCCCN2CCN(Cc3ccc(Cl)cc3)CC2)cc1` [Example 12, 1-{3-[4-(4-Chlorobenzyl)piperazin-1-yl]-propyl}-3-(4-methoxyphenyl)urea hydrochloride], the figures for the IC50 in assay [1] and in assay [2] were 80 µM and 0.015 µM, respectively.
The matching figures for `O=C(NCCCN1CCN(Cc2ccc(Cl)cc2)CC1)Nc1ccc(F)cc1` [Example 15, 1-{3-[4-(4-Chlorobenzyl)piperazin-1-yl]propyl}-3-(4-fluorophenyl)urea dihydrochloride monohydrate]: 20 µM and 0.06 µM.
On the same counts, the results for `O=C(NCCCN1CCN(Cc2ccc(Cl)cc2)CC1)Nc1ccc([N+](=O)[O-])cc1` [Example 16, 1-{3-[4-(4-Chlorobenzyl)piperazin-1-yl]propyl}-3-(4-nitrophenyl)urea dihydrochloride] are 30 µM and 0.018 µM.
As to `O=C(NCCCN1CCCN(Cc2ccc(Cl)cc2)CC1)NC1CCCCC1` [Example 17, 1-{3-[4-(4-Chlorobenzyl)homopiperazin-1-yl]propyl}-3-cyclohexylurea dihydrochloride], the IC50 in assay [1] came out at 13 µM; in assay [2], 0.15 µM.
For `O=C(NCCCN1CCCN(Cc2ccc(Cl)cc2)CC1)Nc1ccccc1` [Example 18, 1-{3-[4-(4-Chlorobenzyl)homopiperazin-1-yl]propyl}-3-phenylurea dihydrochloride], the IC50 in assay [1] is 15 µM; in assay [2], 0.55 µM.
On the same counts, the results for `S=C(NCCCN1CCN(Cc2ccc(Cl)cc2)CC1)NC1CCCCC1` [Example 19, 1-{3-[4-(4-Chlorobenzyl)piperazin-1-yl]propyl}-3-cyclohexylthiourea] are 26 µM and 0.11 µM.
Consider `CCOc1ccc(NC(=O)NCCCN2CCN(Cc3ccc(Cl)cc3)CC2)cc1` [Example 30, 1-{3-[4-(4-Chlorobenzyl)piperazin-1-yl]propyl}-3-(4-ethoxyphenyl)urea dihydrochloride], for which the 50% inhibitory concentration (IC50) in assay [1] is 35 µM.
